± gives the expanded uncertainty stated by the source.
Experiments:
[1] = molar heat capacity at constant pressure; details: 101.33 kPa, Crystal 2, Small (less than 1 g) adiabatic calorimetry
[2] = Molar enthalpy of transition or fusion; details: DSC

O[C@@H]1[C@@H](O)[C@@H]2OC[C@@H](O2)[C@H]1O [1,6-anhydro-β-D-glucopyranose]
Details | Molar enthalpy of transition or fusion [kcal/mol] | molar heat capacity at constant pressure [J/K/mol]
[1], 5 K | – | 0.138 ± 0.018
[1], 10 K | – | 1.118 ± 0.032
[1], 15 K | – | 3.898 ± 0.065
[1], 20 K | – | 7.99 ± 0.091
[1], 25 K | – | 12.65 ± 0.12
[1], 30 K | – | 17.41 ± 0.15
[1], 35 K | – | 22.01 ± 0.17
[1], 40 K | – | 26.36 ± 0.2
[1], 45 K | – | 30.52 ± 0.22
[1], 50 K | – | 34.47 ± 0.24
[1], 60 K | – | 41.86 ± 0.28
[1], 70 K | – | 48.71 ± 0.31
[1], 80 K | – | 55.17 ± 0.35
[1], 90 K | – | 61.41 ± 0.4
[1], 100 K | – | 67.71 ± 0.43
[1], 110 K | – | 74.28 ± 0.46
[1], 120 K | – | 79.92 ± 0.49
[1], 130 K | – | 85.48 ± 0.51
[1], 140 K | – | 91.03 ± 0.54
[1], 150 K | – | 96.6 ± 0.57
[1], 160 K | – | 102.2 ± 0.6
[1], 170 K | – | 107.8 ± 0.6
[1], 180 K | – | 113.5 ± 0.7
[1], 190 K | – | 119.2 ± 0.7
[1], 200 K | – | 125 ± 0.7
[1], 210 K | – | 130.9 ± 0.7
[1], 220 K | – | 136.9 ± 0.7
[1], 230 K | – | 143 ± 0.8
[1], 240 K | – | 149.2 ± 0.8
[1], 250 K | – | 155.5 ± 0.8
[1], 260 K | – | 162 ± 0.9
[1], 270 K | – | 168.5 ± 0.9
[1], 280 K | – | 175.1 ± 0.9
[1], 290 K | – | 181.7 ± 1
[1], 298.15 K | – | 187.2 ± 1
[1], 300 K | – | 188.5 ± 1
[1], 310 K | – | 195.5 ± 1.1
[1], 320 K | – | 202.7 ± 1.1
[1], 330 K | – | 210.3 ± 1.1
[1], 340 K | – | 218.6 ± 1.2
[1], 350 K | – | 227.1 ± 1.2
[1], 360 K | – | 235.5 ± 1.2
[1], 370 K | – | 244 ± 1.3
[1], 380 K | – | 252.5 ± 1.3
[1], 384 K | – | 255.9 ± 1.3
[2], Crystal 1 | 0.693 ± 0.0478 | –
[2], Crystal 2 | 5.98 ± 0.167 | –

Source: the NIST ThermoML archive (doi:10.1016/j.jct.2015.01.005)
